{
  "source": "patent US11613775B2",
  "about": "“Measuring DNA polymerase fidelity” (Northwestern University, priority 2017, dated 2023)",
  "molecules": {"B1": {"name": "Sulfolobus solfataricus Dpo4: a close homologue of S. islandicus Dpo4, literature data (protein, UniProt Q97W02 1-352, looked up)", "DNA polymerase IV": "MIVLFVDFDYFYAQVEEVLNPSLKGKPVVVCVFSGRFEDSGAVATANYEARKFGVKAGIPIVEAKKILPNAVYLPMRKEVYQQVSSRIMNLLREYSEKIEIASIDEAYLDISDKVRDYREAYNLGLEIKNKILEKEKITVTVGISKNKVFAKIAADMAKPNGIKVIDDEEVKRLIRELDIADVPGIGNITAEKLKKLGINKLVDTLSIEFDKLKGMIGEAKAKYLISLARDEYNEPIRTRVRKSIGRIVTMKRNSRNLEEIKPYLFRAIEESYYKLDKRIPKAIHVVAVTEDLDIVSRGRTFPHGISKETAYSESVKLLQKILEEDERKIRRIGVRFSKFIEAIGLDKFFDT"}},
  "key": {"[1]": {"settings": "previously reported; cited from earlier work"}, "[2]": {"settings": "previously reported; cited from earlier work", "remark": "listed apart in the source"}, "[3]": {"system": "extension templates (TT, TA, TC, and TG)", "assay": "Nucleotide imbalance fidelity assay (rare base titration, NGS readout)", "type": "biochemical", "from_the_text": "Extension templates (TT, TA, TC, and TG) were designed for all four rare base contexts (Table 2). Templates were 100 bp in length and contained a single T, A, C, or G, or Error-Enriched Site (EES), near the middle of the template. Extension templates were designed to contain only three bases, with the exception of the EES (fourth base) and the extension primer-binding site. For each template type, the EES was flanked by 3 degenerate bases before the EES and 3 degenerate bases after the EES in order to create the following sequence context libraries: VVVTVVV, BBBABBB, DDDCDDD, and HHHGHHH (using IUPAC ambiguity codes). Because each of the 6 degenerate sites can be composed of 3 possible bases, each template library contained 729 (3^6) unique sequence contexts surrounding the EES. With the exception of the 6 bases flanking the EES, template sequences within a given library were identical. All templates contained a 3′ dideoxy-C modification to prevent extension from the template strand during a final PCR amplification step. Extension templates were purified via PAGE (Integrated DNA Technologies).\nIndividual annealing reactions were performed for each template type (TT, TA, TC, TG). Primer/template DNA was prepared by mixing PEXT with each template library in a 1:1.5 molar ratio (70 nM primer: 105 nM template) in a 1× reaction buffer specific to each DNA polymerase being tested (Table 1). The extension primer was annealed to template DNA by incubation at 95° C. for 2 minutes, followed by a −0.1° C./sec ramp until reaching 4° C.\nPrimer extension reactions were set up in duplicate for each condition being tested. Biological replicate reactions were performed in parallel, with the same annealed primer/template sample used for both replicates. For each DNA polymerase and rare base context of interest, 9 rare base concentrations were tested (log-fold dilutions from 10 μM-0.1 pM) while the concentration of the 3 non-rare bases was held constant at 10 μM (Bioline).\nPrimer extension reactions consisted of 1 μL of annealing reaction, 1× dNTP stocks ([…]+variable [dRTP]), variable DNA polymerase units, and 1×DNA polymerase reaction buffer in a 10 μL reaction. Extension reaction conditions for DNA polymerases tested are described in Table 1. Extension reactions were incubated for 1 hour and stored at −20° C. until purification. The Fluent Automated Liquid Handling Platform (Tecan) was used to set up all primer extension reactions.\nThe sample preparation pipeline for NGS was adapted from a previous protocol (Ref. 28; herein incorporated by reference in its entirety). Products from individual rare base extension reactions were column purified in 96-well plate format using the ZR-96 DNA Clean & Concentrator-5 (Deep well format) kit (Zymo Research). Purified DNA products were eluted in 10 μL of water and stored at −20° C. until ligation. Next, a 22 bp universal tag, common sequence 2 (CS2) of the Fluidigm Access Array Barcode Library for Illumina Sequencers (Fluidigm), synthesized as duplex DNA with a 5′ phosphate modification and PAGE purified (Integrated DNA Technologies, Table 2) was blunt-end ligated to the 3′ end of extended products. Ligation reactions were carried out in 10 μL volumes and consisted of 6 μL of purified product, 30 nM CS2 duplex DNA, 1× T4 DNA Ligase Reaction Buffer (New England Biolabs), and 2000 Units of T4 DNA Ligase (New England Biolabs). Ligation reactions were incubated at 16° C. for 16 hours. Ligated products were stored at −20° C. until PCR.\nPCR was performed with barcoded primer sets from the Access Array Barcode Library for Illumina Sequencers (Fluidigm) to label extension products from up to 384 individual reactions. Each PCR primer set contained a unique barcode in the reverse primer. From 5′-3′, the forward PCR primer (PE1_CS1) contained a 25 base paired-end Illumina adapter 1 sequence followed by CS1. The binding target of the forward PCR primer was the reverse complement of the CS1 tag built into PEXT. […]"}, "[4]": {"settings": "previously reported; cited from earlier work", "remark": "listed apart in the source"}, "[5]": {"settings": "previously reported; cited from earlier work", "remark": "listed apart in the source"}, "[6]": {"settings": "previously reported; cited from earlier work", "remark": "listed apart in the source"}, "[7]": {"settings": "previously reported; cited from earlier work", "remark": "listed apart in the source"}, "lacZ template": {"system": "lacZ template", "settings": "cited from earlier work"}, "[8]": {"settings": "\"C\" template context, lowest [dRTP] tested (10^−7 μM)"}, "[9]": {"settings": "All Four Contexts, fit of duplicate data from all four template contexts (n = 8), average FC50"}, "[10]": {"settings": "BBBABBB template context, n = 2"}, "[11]": {"settings": "DDDCDDD template context, n = 2"}, "[12]": {"settings": "HHHGHHH template context, n = 2"}, "[13]": {"settings": "VVVTVVV template context, n = 2"}},
  "note": "Read-outs that look alike come from different tables or passages of the source.",
  "data": [
    {"molecule": "Taq: widely used commercial DNA polymerase (New England Biolabs)", "values": [
      {"measurement": "Error Rate", "setting": "[1]", "result": 0.00018, "unit": "errors/bp"},
      {"measurement": "Error Rate", "setting": "[2]", "result": 0.00021, "unit": "errors/bp"},
      {"measurement": "preferred error type", "setting": "[3]; \"A\" template context, lowest [dRTP] tested (10^−7 μM)", "result": "A:dATP"},
      {"measurement": "preferred error type", "setting": "[3]; [8]", "result": "C:dATP"},
      {"measurement": "preferred error type", "setting": "[3]; \"G\" template context, lowest [dRTP] tested (10^−7 μM)", "result": "G:dTTP"},
      {"measurement": "FC50", "setting": "[3]; [9]", "result": 0.00267, "unit": "µM"},
      {"measurement": "FC50", "setting": "[3]; [10]", "result": 0.00261, "unit": "µM"},
      {"measurement": "FC50", "setting": "[3]; [11]", "result": 0.00215, "unit": "µM"},
      {"measurement": "FC50", "setting": "[3]; [12]", "result": 0.00208, "unit": "µM"},
      {"measurement": "FC50", "setting": "[3]; [13]", "result": 0.00405, "unit": "µM"},
      {"measurement": "Error Rate", "setting": "[4]", "result": 0.00011, "unit": "subs/bp"},
      {"measurement": "Error Rate", "setting": "[5]", "result": 0.0002, "unit": "subs/bp"}
    ]},
    {"molecule": "Phi29: high fidelity polymerase with proofreading ability (New England Biolabs)", "values": [
      {"measurement": "Error Rate", "setting": "[6]", "result": 0.0000095, "unit": "errors/bp"},
      {"measurement": "Error Rate", "setting": "[7]", "result": 0.000003, "unit": "errors/bp"},
      {"measurement": "preferred error type", "setting": "[3]; [8]", "result": "C:dTTP"},
      {"measurement": "FC50", "setting": "[3]; [9]", "result": 0.000861, "unit": "µM"},
      {"measurement": "FC50", "setting": "[3]; [10]", "result": 0.000877, "unit": "µM"},
      {"measurement": "preferred error type", "setting": "[3]; DDDCDDD context, −1 G", "result": "C:dATP"},
      {"measurement": "preferred error type", "setting": "[3]; DDDCDDD context, −1 T", "result": "C:dTTP"},
      {"measurement": "FC50", "setting": "[3]; [11]", "result": 0.00125, "unit": "µM"},
      {"measurement": "FC50", "setting": "[3]; [12]", "result": 0.00139, "unit": "µM"},
      {"measurement": "FC50", "setting": "[3]; [13]", "result": 0.000475, "unit": "µM"},
      {"measurement": "estimated (FC50-derived) error rate versus mean of the two reported literature error rates", "setting": "[3]; average FC50 converted with Equation 9", "result": 2.7, "unit": "fold"}
    ]},
    {"molecule": "B1", "values": [
      {"measurement": "error preferences", "setting": "lacZ template; at A sites", "result": "A:dATP>A:dCTP>A:dGTP"},
      {"measurement": "error preferences", "setting": "lacZ template; at C sites", "result": "C:dCTP>C:dATP=C:dTTP"},
      {"measurement": "error preferences", "setting": "lacZ template; at G sites", "result": "G:dTTP>G:dGTP>G:dATP"},
      {"measurement": "error preferences", "setting": "lacZ template; at T sites", "result": "T:dGTP>T:dCTP T:dTTP"}
    ]}
  ]
}
